How the values were obtained:
[1] = target: T1, SMARCA4 (Homo sapiens, UniProt P51532); assay: SMARCA4 HiBiT degradation assay in HeLa cells; format: cell-based; conditions: 18 hours; for Dmax: HeLa
T1 construct: SMARCA4-HiBiT knock-in Hela monoclonal cell (CS3023226) were purchased from Promega; host or cells: HeLa (CRISPR HiBiT knock-in monoclonal line, heterozygous)
Protocol: (§1) Example A. SMARCA2 HiBiT and SMARCA4 HiBiT Degradation Assay
(§2) Preparation of SMARCA2/4-HiBiT Knock-In Cells
(§3) HiBiT peptide knock-in of SMARCA2 in LgBiT expressing HEK293T cells was performed by CRISPR-mediated tagging system as described Promega. The homozygous HiBiT knock-in on c-terminus SMARCA2 was confirmed by sanger sequence. SMARCA2-HiBiT knock-in Hela monoclonal cell (CS302366) and SMARCA4-HiBiT knock-in Hela monoclonal cell (CS3023226) were purchased from Promega. The heterozygous HiBiT-knock-in was confirmed by sanger sequence in both SMARCA2-HiBiT and SMARCA4-HiBiT monoclonal cells.
(§4) SMARCA2 HiBiT and SMARCA4 HiBiT Degradation Assay in HeLa Cells
(§5) Compounds were dissolved in DMSO to make 10 mM stock and 3-fold series dilutions were further conducted keeping the highest concentration 10 μM. NCIH1693 and NCIH520 cells were maintained in PRMI 1640 medium (Corning Cellgro, Catalog #:10-040-CV) supplemented with 10% v/v FBS (GE Healthcare, Catalog #: SH30910.03) by splitting 1:3 twice a week.
(§6) Dispense 10 ul aliquot of prepared Hela-SMARCA2-HiBiT or Hela-SMARCA4-HiBiT cells (1:1 ratio of cells:Trypan Blue (#1450013, Bio-Rad)) onto cell counting slide (#145-0011, Bio-Rad) and obtain cell density and cell viability using cell counter (TC20, Bio-Rad). Remove appropriate volume of resuspended cells from culture flask to accommodate 2500 cells/well @ 20 μL/well. Transfer Hela-HiBiT cells to 50 mL conical (#430290, Corning). Spin down at 1000 rpm for 5 min using tabletop centrifuge (SPINCHRON 15, Beckman). Discard supernatant and resuspend cell pellet in modified EMEM (#30-2003, ATCC) cell culture media containing 10% FBS (F2422-500ML, Sigma), and 1X Penicillin/Streptomycin (200 g/L) (30-002-CI, Corning) to a cell density of 125,000 cells/mL. Dispense 20 μL of resuspended Hela-HiBit cells per well in 384-well TC treated plate (#12-565-343, Thermo Scientific) using standard cassette (#50950372, Thermo Scientific) on Multidrop Combi (#5840310, Thermo Scientific) inside laminar flow cabinet. Dispense test compounds onto plates using digital liquid dispenser (D300E, Tecan). Incubate plates in humidified tissue culture incubator @37° C. for 18 hours. Add 20 μL of prepared Nano-Glo® HiBiT Lytic detection buffer (N3050, Promega) to each well of 384-well plate using small tube cassette (#24073295, Thermo Scientific) on Multidrop Combi, incubate @ RT for 30-60 min. Read plates on microplate reader (Envision 2105, PerkinElmer) using 384 well Ultra-Sensitive luminescence mode. Raw data files and compound information reports are swept into centralized data lake and deconvoluted using automated scripts designed by TetraScience, Inc. Data analysis, curve-fitting and reporting done in Dotmatics Informatics Suite using Screening Ultra module.

[2] = target: T2, SMARCA2 (Homo sapiens, UniProt P51531); assay: SMARCA2 HiBiT degradation assay in HeLa cells; format: cell-based; conditions: 18 hours; for DC50: read-out: SMARCA2 IC50; for Dmax: HeLa
T2 construct: SMARCA2-HiBiT knock-in Hela monoclonal cell (CS302366); host or cells: HeLa (CRISPR HiBiT knock-in monoclonal line, heterozygous)
T2 sequence (P51531 whole entry): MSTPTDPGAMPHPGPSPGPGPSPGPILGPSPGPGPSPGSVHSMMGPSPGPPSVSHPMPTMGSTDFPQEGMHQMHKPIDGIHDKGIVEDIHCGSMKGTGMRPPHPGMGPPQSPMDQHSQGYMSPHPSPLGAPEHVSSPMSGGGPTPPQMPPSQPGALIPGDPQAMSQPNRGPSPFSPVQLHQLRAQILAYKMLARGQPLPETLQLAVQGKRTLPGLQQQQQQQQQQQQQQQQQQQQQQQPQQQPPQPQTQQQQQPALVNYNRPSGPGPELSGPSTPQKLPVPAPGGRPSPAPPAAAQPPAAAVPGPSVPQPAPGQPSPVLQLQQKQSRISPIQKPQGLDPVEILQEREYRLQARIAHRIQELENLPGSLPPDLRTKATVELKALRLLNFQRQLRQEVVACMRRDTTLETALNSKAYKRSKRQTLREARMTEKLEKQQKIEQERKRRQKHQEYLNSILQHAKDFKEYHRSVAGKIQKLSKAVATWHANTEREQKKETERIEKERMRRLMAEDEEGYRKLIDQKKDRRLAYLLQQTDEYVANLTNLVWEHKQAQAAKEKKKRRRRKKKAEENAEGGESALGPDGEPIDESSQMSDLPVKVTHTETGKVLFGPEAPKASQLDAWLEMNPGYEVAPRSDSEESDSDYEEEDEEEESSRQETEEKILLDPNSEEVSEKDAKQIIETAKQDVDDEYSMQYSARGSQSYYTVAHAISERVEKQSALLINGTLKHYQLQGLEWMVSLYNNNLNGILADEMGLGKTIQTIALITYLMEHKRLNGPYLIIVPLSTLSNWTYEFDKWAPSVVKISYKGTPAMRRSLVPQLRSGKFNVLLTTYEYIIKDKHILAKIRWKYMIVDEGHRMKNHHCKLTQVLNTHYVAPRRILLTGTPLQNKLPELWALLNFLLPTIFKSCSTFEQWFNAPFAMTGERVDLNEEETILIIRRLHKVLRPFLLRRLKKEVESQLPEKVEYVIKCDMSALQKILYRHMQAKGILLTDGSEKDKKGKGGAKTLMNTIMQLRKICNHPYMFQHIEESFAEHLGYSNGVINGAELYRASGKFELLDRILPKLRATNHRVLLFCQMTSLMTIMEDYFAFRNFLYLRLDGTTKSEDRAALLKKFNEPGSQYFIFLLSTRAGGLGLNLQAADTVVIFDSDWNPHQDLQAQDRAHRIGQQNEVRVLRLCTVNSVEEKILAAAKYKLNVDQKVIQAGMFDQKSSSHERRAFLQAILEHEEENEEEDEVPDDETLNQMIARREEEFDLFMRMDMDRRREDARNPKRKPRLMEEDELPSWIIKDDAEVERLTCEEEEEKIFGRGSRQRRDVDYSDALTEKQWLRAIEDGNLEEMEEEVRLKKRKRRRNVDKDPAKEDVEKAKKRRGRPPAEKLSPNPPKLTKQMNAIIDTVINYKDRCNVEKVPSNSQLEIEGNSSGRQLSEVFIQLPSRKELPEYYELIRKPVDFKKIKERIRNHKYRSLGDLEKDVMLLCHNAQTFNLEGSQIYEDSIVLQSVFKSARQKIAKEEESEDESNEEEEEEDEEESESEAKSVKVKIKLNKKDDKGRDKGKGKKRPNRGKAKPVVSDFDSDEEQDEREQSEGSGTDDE
Protocol: as §1, §2, §3, §4, §5, §6

T1 sequence (P51532 whole entry): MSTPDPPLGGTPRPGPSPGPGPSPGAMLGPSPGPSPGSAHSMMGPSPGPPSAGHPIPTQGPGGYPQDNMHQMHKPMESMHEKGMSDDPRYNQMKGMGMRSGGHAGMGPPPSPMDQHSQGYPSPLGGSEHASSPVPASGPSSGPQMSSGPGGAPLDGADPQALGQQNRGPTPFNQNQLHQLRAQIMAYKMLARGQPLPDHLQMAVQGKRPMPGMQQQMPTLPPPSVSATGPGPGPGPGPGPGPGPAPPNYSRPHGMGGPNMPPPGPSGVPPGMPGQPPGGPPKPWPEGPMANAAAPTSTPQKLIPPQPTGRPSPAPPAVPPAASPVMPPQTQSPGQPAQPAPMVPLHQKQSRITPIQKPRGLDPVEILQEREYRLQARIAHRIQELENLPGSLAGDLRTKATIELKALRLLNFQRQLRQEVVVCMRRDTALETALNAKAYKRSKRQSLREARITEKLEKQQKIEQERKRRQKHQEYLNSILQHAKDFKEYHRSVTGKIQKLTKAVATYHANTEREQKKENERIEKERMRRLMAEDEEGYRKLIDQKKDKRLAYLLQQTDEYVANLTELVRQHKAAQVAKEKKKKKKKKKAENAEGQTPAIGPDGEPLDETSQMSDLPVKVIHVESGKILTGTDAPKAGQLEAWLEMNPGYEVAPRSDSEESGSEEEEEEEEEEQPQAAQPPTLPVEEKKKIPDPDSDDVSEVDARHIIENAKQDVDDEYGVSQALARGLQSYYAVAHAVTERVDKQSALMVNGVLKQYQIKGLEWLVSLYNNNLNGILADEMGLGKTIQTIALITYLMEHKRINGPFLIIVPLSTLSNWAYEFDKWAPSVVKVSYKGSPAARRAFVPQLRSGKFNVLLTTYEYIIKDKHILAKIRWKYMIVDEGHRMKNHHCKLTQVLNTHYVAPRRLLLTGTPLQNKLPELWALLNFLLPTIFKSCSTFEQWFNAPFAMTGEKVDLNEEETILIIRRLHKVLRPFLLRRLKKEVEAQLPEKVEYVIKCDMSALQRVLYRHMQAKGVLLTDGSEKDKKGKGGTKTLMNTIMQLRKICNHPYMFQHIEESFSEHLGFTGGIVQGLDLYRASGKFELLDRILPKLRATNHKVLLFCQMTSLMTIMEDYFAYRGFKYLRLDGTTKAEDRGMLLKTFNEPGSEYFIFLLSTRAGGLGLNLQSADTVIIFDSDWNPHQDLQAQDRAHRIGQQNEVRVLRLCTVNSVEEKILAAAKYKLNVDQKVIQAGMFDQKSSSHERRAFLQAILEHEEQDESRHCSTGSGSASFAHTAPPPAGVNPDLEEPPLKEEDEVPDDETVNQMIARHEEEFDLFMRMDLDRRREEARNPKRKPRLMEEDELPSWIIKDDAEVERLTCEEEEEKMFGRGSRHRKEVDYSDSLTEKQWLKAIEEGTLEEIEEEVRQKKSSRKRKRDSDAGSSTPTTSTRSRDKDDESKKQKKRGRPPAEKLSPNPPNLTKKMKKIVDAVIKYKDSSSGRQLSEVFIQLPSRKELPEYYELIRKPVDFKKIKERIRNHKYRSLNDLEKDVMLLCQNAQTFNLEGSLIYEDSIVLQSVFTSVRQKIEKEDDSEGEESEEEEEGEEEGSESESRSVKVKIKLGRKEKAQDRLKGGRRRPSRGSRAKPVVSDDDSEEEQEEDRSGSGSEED

Row | SMILES | DC50 [1] [µM] | SMARCA4 DMax % [1] | SMARCA2 DMax % [2] | DC50 [2] [µM] | Dmax [1] [%] | Dmax [2] [%]
1 | CCC12CNc3nnc(-c4cccc(F)c4O)cc3N1CCN(C(=O)N1[C@H](C)CN(CC3CCN(c4ccc5c(c4)C(=O)N(C4CCC(=O)NC4=O)C5)CC3)C[C@@H]1C)C2 (single isomer, unassigned) [Example 62] | < 0.1 | A (A=Dmax>75%) | A (A=Dmax>75%) | < 0.1 |  | 
2 | CC1(C)CN(CC2CCN(c3ccc4c(c3)C(=O)N(C3CCC(=O)NC3=O)C4=O)CC2)CCN1C(=O)N1CCN2c3cc(-c4cccc(F)c4O)nnc3NCC2(C)C1 (mixture of isomers) [Example 7, 2-(2,6-dioxopiperidin-3-yl)-5-(4-((4-(2-(3-fluoro-2-hydroxyphenyl)-6a-methyl-6,6a,7,8,9,10-hexahydro-5H-pyrazino[1′,2′:4,5]pyrazino[2,3-c]pyridazine-8-carbonyl)-3,3-dimethylpiperazin-1-yl)methyl)piperidin-1-yl)isoindoline-1,3-dione] | < 0.1 |  |  | < 0.1 | 50 to 75 | > 75
3 | C[C@@H]1CN(CC2CCN(c3ccc4c(c3)C(=O)N([C@H]3CCC(=O)NC3=O)C4)CC2)C[C@@H](C)N1C(=O)N1CCN2c3cc(-c4cccc(F)c4O)nnc3NCC2(C(F)(F)F)C1 (single isomer, unassigned) [Example 96] | < 0.1 | A (A=Dmax>75%) |  | < 0.1 |  | > 75
4 | CCC12CNc3nnc(-c4cccc(F)c4O)cc3N1CCN(C(=O)N1C[C@H](C)N(CC3CCN(c4ccc5c(c4)C(=O)N([C@H]4CCC(=O)NC4=O)C5)CC3)C[C@H]1C)C2 (single isomer, unassigned) [Example 78] | < 0.1 |  |  | < 0.1 | 50 to 75 | > 75
5 | CCC12CNc3nnc(-c4cccc(F)c4O)cc3N1CCN(C(=O)N1CCN(CC3CCN(c4ccc5c(c4)C(=O)N(C4CCC(=O)NC4=O)C5=O)CC3)CC1(C)C)C2 (mixture of isomers) [Example 32, 2-(2,6-dioxopiperidin-3-yl)-5-(4-((4-(6a-ethyl-2-(3-fluoro-2-hydroxyphenyl)-6,6a,7,8,9,10-hexahydro-5H-pyrazino[1′,2′:4,5]pyrazino[2,3-c]pyridazine-8-carbonyl)-3,3-dimethylpiperazin-1-yl)methyl)piperidin-1-yl)isoindoline-1,3-dione] | < 0.1 |  |  | < 0.1 | < 50 | 50 to 75
6 | CC1(C)CC(CN2CCN(c3ccc4c(c3)C(=O)N([C@H]3CCC(=O)NC3=O)C4)CC2)CCN1C(=O)N1CCN2c3cc(-c4cccc(F)c4O)nnc3NC[C@@]2(C(F)F)C1 (stereo partly drawn) [Example 73, (3S)-3-(6-(4-((1-((S)-6a-(difluoromethyl)-2-(3-fluoro-2-hydroxyphenyl)-6,6a,7,8,9,10-hexahydro-5H-pyrazino[1′,2′:4,5]pyrazino[2,3-c]pyridazine-8-carbonyl)-2,2-dimethylpiperidin-4-yl)methyl)piperazin-1-yl)-1-oxoisoindolin-2-yl)piperidine-2,6-dione] | 0.1 to 1 |  |  | < 0.1 | < 50 | > 75
7 | C[C@@H]1C[C@H](CN2CCN(c3ccc4c(c3)C(=O)N([C@H]3CCC(=O)NC3=O)C4)CC2)C[C@H](C)N1C(=O)N1CCN2c3cc(-c4cccc(F)c4O)nnc3NCC2(C(F)(F)F)C1 (single isomer, unassigned) [Example 99] | < 0.1 | B (B=50%<Dmax≤75%) | A (A=Dmax>75%) | < 0.1 |  | 
8 | C[C@@H]1CN(CC2CCN(c3ccc4c(c3)C(=O)N(C3CCC(=O)NC3=O)C4)CC2)C[C@@H](C)N1C(=O)N1CCN2c3cc(-c4cc(F)cc(F)c4O)nnc3NCC2(C)C1 (stereo partly drawn) [Example 33, 3-(6-(4-(((3R,5R)-4-(2-(3,5-difluoro-2-hydroxyphenyl)-6a-methyl-6,6a,7,8,9,10-hexahydro-5H-pyrazino[1′,2′:4,5]pyrazino[2,3-c]pyridazine-8-carbonyl)-3,5-dimethylpiperazin-1-yl)methyl)piperidin-1-yl)-1-oxoisoindolin-2-yl)piperidine-2,6-dione] | < 0.1 |  |  | < 0.1 | > 75 | > 75
9 | C[C@@H]1CN(CC2CCN(c3ccc4c(c3)C(=O)N(C3CCC(=O)NC3=O)C4)CC2)C[C@@H](C)N1C(=O)N1CCN2c3cc(-c4cccc(F)c4O)nnc3NCC2(C)C1 (single isomer, unassigned) [Example 13] | < 0.1 |  |  | < 0.1 | < 50 | > 75
10 | CC1(C)CN(CC2CCN(c3ccc4c(c3)C(=O)N([C@H]3CCC(=O)NC3=O)C4)CC2)CCN1C(=O)N1CCN2c3cc(-c4cccc(F)c4O)nnc3NCC2(CF)C1 (single isomer, unassigned) [Example 89] | 0.1 to 1 |  |  | < 0.1 | < 50 | > 75
11 | C[C@H]1CN2c3cc(-c4cc(F)cc(F)c4O)nnc3NC[C@H]2CN1C[C@H]1[C@@H]2CN(CC3CN(c4ccc5c(c4)C(=O)N(C4CCC(=O)NC4=O)C5)CCO3)C[C@@H]21 (stereo partly drawn) [Example 50, 3-(6-(2-(((1R,5S,6r)-6-(((6aS,9S)-2-(3,5-difluoro-2-hydroxyphenyl)-9-methyl-5,6,6a,7,9,10-hexahydro-8H-pyrazino[1′,2′:4,5]pyrazino[2,3-c]pyridazin-8-yl)methyl)-3-azabicyclo[3.1.0]hexan-3-yl)methyl)morpholino)-1-oxoisoindolin-2-yl)piperidine-2,6-dione] | < 0.1 |  |  | < 0.1 | 50 to 75 | > 75
12 | O=C1CCC(N2Cc3ccc(N4CCC(CN5C[C@@H]6[C@H](C5)[C@H]6CN5CCN6c7cc(-c8cc(F)cc(F)c8O)nnc7NC[C@H]6C5)C(F)(F)C4)cc3C2=O)C(=O)N1 (single isomer, unassigned) [Example 41] | < 0.1 | B (B=50%<Dmax≤75%) | A (A=Dmax>75%) | < 0.1 |  | 
13 | C[C@@H]1CN(CC2CCN(c3ccc4c(c3)C(=O)N(C3CCC(=O)NC3=O)C4)CC2)C[C@H](C)N1C(=O)N1CCN2c3cc(-c4cccc(F)c4O)nnc3NC[C@@]2(C(F)F)C1 (stereo partly drawn) [Example 69, 3-(6-(4-(((3R,5S)-4-((S)-6a-(difluoromethyl)-2-(3-fluoro-2-hydroxyphenyl)-6,6a,7,8,9,10-hexahydro-5H-pyrazino[1′,2′:4,5]pyrazino[2,3-c]pyridazine-8-carbonyl)-3,5-dimethylpiperazin-1-yl)methyl)piperidin-1-yl)-1-oxoisoindolin-2-yl)piperidine-2,6-dione] | > 1 |  |  | < 0.1 | < 50 | > 75
14 | CCC12CNc3nnc(-c4cccc(F)c4O)cc3N1CCN(C(=O)N1[C@H](C)CN(CC3CCN(c4ccc5c(c4)C(=O)N(C4CCC(=O)NC4=O)C5)CC3)C[C@@H]1C)C2 (single isomer, unassigned) [Example 60] | < 0.1 |  |  | < 0.1 | > 75 | > 75
15 | CC1(C)CN(CC2CCN(c3ccc4c(c3)C(=O)N(C3CCC(=O)NC3=O)C4)CC2)CCN1C(=O)N1CCN2c3cc(-c4cc(F)cc(F)c4O)nnc3NC[C@H]2C1 (stereo partly drawn) [Example 22, 3-(6-(4-((4-((S)-2-(3,5-difluoro-2-hydroxyphenyl)-6,6a,7,8,9,10-hexahydro-5H-pyrazino[1′,2′:4,5]pyrazino[2,3-c]pyridazine-8-carbonyl)-3,3-dimethylpiperazin-1-yl)methyl)piperidin-1-yl)-1-oxoisoindolin-2-yl)piperidine-2,6-dione] | < 0.1 |  |  | < 0.1 | 50 to 75 | > 75
